Patent US10398592B2, “Diagnostic methods and apparatus” (ForSight Vision4, Inc., priority 2011, dated 2019)

Legend:
[1] = Diffusion model of release from the therapeutic device reservoir through the porous structure
Text: The release rate of therapeutic agent 110 through a porous body, such as a sintered porous metal structure or a porous glass structure, may be described by diffusion of the therapeutic agent 110 within the porous structure 150 with the channel parameter, and with an effective diffusion coefficient equal to the diffusion coefficient of the therapeutic agent 110 in the liquid that fills the reservoir multiplied by the Porosity and a Channel Parameter of the porous body: Release Rate=(DP/F)A(cR−cV)/L, where: cR=Concentration in reservoir cV=Concentration outside of the reservoir or in the vitreous D=Diffusion coefficient of the therapeutic agent in the reservoir solution P=Porosity of porous structure F=Channel parameter that may correspond to a tortuosity parameter of channels of porous structure A=Area of porous structure L=Thickness (length) of porous structure Cumulative Release=1−cR/cR0=1−exp((−DPA/FLVR)t), where t=time, Vr=reservoir volume
A model can be derived to describe the release rate as a function of time by relating the change of concentration in the reservoir 140 to the release rate described above. This model assumes a solution of therapeutic agent 110 where the concentration in the reservoir 140 is uniform. In addition, the concentration in the receiving fluid or vitreous is considered negligible (cV=0). Solving the differential equation and rearrangement yields the following equations describing the concentration in the reservoir as a function of time, t, and volume of the reservoir, VR, for release of a therapeutic agent 110 from a solution in a reservoir though a porous structure 150. cR=cR0 exp((−DPA/FLVR)t) and Cumulative Release=1−cR/cR0
The molecular weight of the stabilizer can be provided in 1k Dalton increments from about 1k Dalton to about 200k Daltons and provide in a Table having about 200 rows similar to Table 2. The parameters of Table 2 determined such as the half-life in the device, the equivalent volume, the equivalent diameter, and % in the device at the half-life of the therapeutic agent 110. The table may comprise a row for each molecular weight in 1k Dalton increments, and the % of stabilizer in the device compared with the therapeutic agent 110. The table may include columns for two half-lives of the therapeutic agent, three half-lives of the therapeutic agent, four half-lives of the therapeutic agent, and the corresponding percentage of stabilizer remaining in the device.
FIG. 104 and Table 3 show concentrations of therapeutic agent, stabilizer and the ratio of stabilizer to therapeutic agent in accordance with an exemplary embodiment, for example. The concentrations and rations can be determined by a person of ordinary skill in the art based on the teachings described herein. […] Additional concentrations of the therapeutic agent can be used, for example greater amounts of therapeutic agent.

[2] = Diffusion coefficients and equivalent size estimated from molecular weight; assay type: physicochemical; settings: for Diff Coeff: Table 2, 37 C, estimated from molecular weight; for D/(Ran D): diffusion relative to Ranibizumab
Text: If the reservoir solution is aqueous or has a viscosity similar to water, the value for the diffusion coefficient of the therapeutic agent (TA) in water at the temperature of interest may be used. […] (Molokhia et al, Exp Eye Res 2008): DTA,37C=DBSA,20C(η20C/η37C)(MWBSA/MWTA)^1/3 where MW refers to the molecular weight of either BSA or the test compound and η is the viscosity of water.
The diffusion constant of the stabilizer can be determined, for example, based on an estimate of hydrodynamic radius corresponding to the cube root of the molecular weight as described herein.
The diffusion coefficients of Table 2 can be determined based on weight for molecular weights up to about 2.5 M Daltons, and based on size above about 2.5 M Daltons.

[3] = test system: analytes detected in pathological aqueous samples; experiment: Analytes in pathological aqueous samples pre-treatment and after intravitreal bevacizumab injection (Table 1); assay type: in vivo
Text: The markers can be used to determine a course of treatment for the patient, and may be combined in many ways with the therapeutic agent as described herein. In many embodiments, the marker comprises a molecule that is a component of the eye which can diffuse through the porous structure into the reservoir structure. In many embodiments, the marker comprises a large molecule that can diffuse through the porous structure of the implanted device into the reservoir chamber. The therapeutic agent may comprise a large molecule or a small molecule that can diffuse through the porous structure, or combinations of large and small molecules. Work in relation to embodiments indicate that marker molecules having a lower molecular weight may accumulate in the implanted device more rapidly than larger molecular weight marker molecules, and that marker molecules having a molecular weight of no more than about 500 kDa can be used in many embodiments. In many embodiments the molecular weight can be smaller than 500 kDa, for example 100 kDa or less, so that the accumulation rate is increased. The molecular weight values of Table 1 can be combined in many ways to provide ranges of molecular weights of the measured marker. Alternatively or in combination, a plurality of markers of different molecular weight can be used to diagnose and treat the patient. Examples of markers and amounts similar to Table 1 can be used and are shown in Molecular Vision (Mol. Vis. 2010; 16: 2175-2184, Published online 2010 Oct. 27) available on the world wide web (at the address http://www.ncbi.nlm.nih.gov/pmc/articles/PMC2994336/table/t1/)
A ratio of pre-treatment mean concentration to post-treatment mean concentration is shown for the markers of Table 1. This ratio can be used to determine markers suitable to indicate efficacy of treatment and markers suitable for use as housekeeping genes. The markers having a ratio […] about 1.2, for example, can be suitable for use as housekeeping markers. Markers having a ratio above about 1.2 may be suitable for use as efficacy markers. In many embodiments, the one or more markers from the therapeutic device correspond to a pre/post ratio above of about 1.5, for example. Alternatively or in combination, the pre/post ratio can be less than 0.8, for example, and the marker risk may correspond to under-expression of protective factors, for example. The marker profile to diagnose the patient from a sample of the implanted device may comprise a plurality of up-regulation of pathogenic factor markers corresponding to a ratio above about 1.2 and a plurality of under-expression of protective factor markers corresponding to a ratio below about 0.8, for example.

[4] = assumes unit density, per molecule
[5] = aqueous samples after intravitreal bevacizumab injection
[6] = aqueous samples, intravitreal bevacizumab injection

## N[C@@H](Cc1c[nH]cn1)C(=O)O [Histidine]
[1]
  Device Half-life relative to Ranibiz.: 0.15
[2]
  Diff Coeff: 6.8E−06 cm^2/s
  D/(Ran D): 6.75
[2]; [4]
  Equiv volume: 0.3 nm^3

## Bevacizumab
[3]; [5]
  Alpha-1 Antitrypsin Post-treatment mean: 0.0025 mg/mL
  Alpha-Fetoprotein Post-treatment mean: 0.2790 ng/mL
  Apolipoprotein A1 Post-treatment mean: 0.0004 mg/mL
  Apolipoprotein CIII Post-treatment mean: 0.0259 µg/mL
  Apolipoprotein H Post-treatment mean: 0.6400 µg/mL
  Beta-2 Microglobulin Post-treatment mean: 0.3026 µg/mL
  C Reactive Protein Post-treatment mean: 0.0477 µg/mL
  CD40 Post-treatment mean: 0.0510 ng/mL
  Cancer Antigen 19-9 Post-treatment mean: 0.2042 U/ml
  Cancer Antigen 125 Post-treatment mean: 1.7225 U/ml
  Complement 3 Post-treatment mean: 0.0014 mg/mL
  Endothelin-1 Post-treatment mean: 5.2375 pg/mL
  Eotaxin Post-treatment mean: 13.5813 pg/mL
  Erythropoietin Post-treatment mean: 111.6125 pg/mL
  FGF basic Post-treatment mean: 30.8900 pg/mL
  Fibrinogen Post-treatment mean: 0.0005 mg/mL
  G-CSF Post-treatment mean: 3.6748 pg/mL
  Glutathione S-Transferase Post-treatment mean: 0.1544 ng/mL
  Haptoglobin Post-treatment mean: 0.0004 mg/mL
  ICAM-1 Post-treatment mean: 0.6971 ng/mL
  IGF-1 Post-treatment mean: 1.4285 ng/mL
  IL-6 Post-treatment mean: 15.2016 pg/mL
  IL-7 Post-treatment mean: 12.3125 pg/mL
  IL-8 Post-treatment mean: 14.9900 pg/mL
  IgA Post-treatment mean: 0.0015 mg/mL
  IgM Post-treatment mean: 0.0009 mg/mL
  Leptin Post-treatment mean: 0.2131 ng/mL
  MCP-1 Post-treatment mean: 438.3750 pg/mL
  MIP-1alpha Post-treatment mean: 9.4175 pg/mL
  MIP-1beta Post-treatment mean: 21.7988 pg/mL
  MMP-3 Post-treatment mean: 0.6159 ng/mL
  Prostate Specific Antigen, Free Post-treatment mean: 0.0092 ng/mL
  Prostatic Acid Phosphatase Post-treatment mean: 0.0095 ng/mL
  SGOT Post-treatment mean: 1.3488 µg/mL
  SHBG Post-treatment mean: 0.2250 nmol/L
  Serum Amyloid P Post-treatment mean: 0.0134 µg/mL
  Stem Cell Factor Post-treatment mean: 19.4375 pg/mL
  TIMP-1 Post-treatment mean: 22.3825 ng/mL
  Thyroxine Binding Globulin Post-treatment mean: 0.3876 µg/mL
  Tissue Factor Post-treatment mean: 0.3631 ng/mL
  VEGF Post-treatment mean: 484.1250 pg/mL
[3]; [6]
  Alpha-1 Antitrypsin Pre-treatment mean/Post-treatment mean: 0.9
  Alpha-Fetoprotein Pre-treatment mean/Post-treatment mean: 0.9
  Apolipoprotein A1 Pre-treatment mean/Post-treatment mean: 1.8
  Apolipoprotein CIII Pre-treatment mean/Post-treatment mean: 1.6
  Apolipoprotein H Pre-treatment mean/Post-treatment mean: 1.3
  Beta-2 Microglobulin Pre-treatment mean/Post-treatment mean: 1.4
  C Reactive Protein Pre-treatment mean/Post-treatment mean: 2.3
  CD40 Pre-treatment mean/Post-treatment mean: 1.3
  Cancer Antigen 19-9 Pre-treatment mean/Post-treatment mean: 1.4
  Cancer Antigen 125 Pre-treatment mean/Post-treatment mean: 1.0
  Complement 3 Pre-treatment mean/Post-treatment mean: 0.9
  Endothelin-1 Pre-treatment mean/Post-treatment mean: 1.0
  Eotaxin Pre-treatment mean/Post-treatment mean: 1.3
  Erythropoietin Pre-treatment mean/Post-treatment mean: 1.1
  FGF basic Pre-treatment mean/Post-treatment mean: 1.7
  Fibrinogen Pre-treatment mean/Post-treatment mean: 2.2
  G-CSF Pre-treatment mean/Post-treatment mean: 4.7
  Glutathione S-Transferase Pre-treatment mean/Post-treatment mean: 0.9
  Haptoglobin Pre-treatment mean/Post-treatment mean: 1.3
  ICAM-1 Pre-treatment mean/Post-treatment mean: 1.1
  IGF-1 Pre-treatment mean/Post-treatment mean: 1.0
  IL-6 Pre-treatment mean/Post-treatment mean: 7.9
  IL-7 Pre-treatment mean/Post-treatment mean: 0.9
  IL-8 Pre-treatment mean/Post-treatment mean: 1.5
  IgA Pre-treatment mean/Post-treatment mean: 0.9
  IgM Pre-treatment mean/Post-treatment mean: 1.4
  Leptin Pre-treatment mean/Post-treatment mean: 1.8
  MCP-1 Pre-treatment mean/Post-treatment mean: 1.5
  MIP-1alpha Pre-treatment mean/Post-treatment mean: 1.1
  MIP-1beta Pre-treatment mean/Post-treatment mean: 1.1
  MMP-3 Pre-treatment mean/Post-treatment mean: 1.0
  Prostate Specific Antigen, Free Pre-treatment mean/Post-treatment mean: 1.8
  Prostatic Acid Phosphatase Pre-treatment mean/Post-treatment mean: 2.7
  SGOT Pre-treatment mean/Post-treatment mean: 1.3
  SHBG Pre-treatment mean/Post-treatment mean: 2.3
  Serum Amyloid P Pre-treatment mean/Post-treatment mean: 2.1
  Stem Cell Factor Pre-treatment mean/Post-treatment mean: 1.0
  TIMP-1 Pre-treatment mean/Post-treatment mean: 1.4
  Thyroid Stimulating Hormone Pre-treatment mean/Post-treatment mean: 1.6
  Thyroxine Binding Globulin Pre-treatment mean/Post-treatment mean: 1.6
  Tissue Factor Pre-treatment mean/Post-treatment mean: 1.0
  VEGF Pre-treatment mean/Post-treatment mean: 1.4
[1]
  Device Half-life relative to Ranibiz.: 1.46

## Polysorbate 20
[1]; % of ranibizumab
  relative half-life in device 100: about 29%
[1]; at the half-life of ranibizumab
  relative amount remaining in therapeutic device 100: about 9.5%
[2]
  Diff Coeff: 3.4E−06 cm^2/s
  D/(Ran D): 3.39
[2]; listed as polysorbate 20
  Diff Coeff: ~3.4E-6 cm^2/s
[2]; [4]
  Equiv volume: 2.0 nm^3
  equivalent diameter: ~1.6 nm
